PubChem BioAssay AID330 (DTP/NCI, 2004)
Several values for one entry are separate records, joined by “and”; a condition that tells them apart may be missing. Identical values can stand only once. Inconclusive results and toxic doses are left out.

Tested on: P388 leukemia ip, CD2F1 mice, survival T/C
Experiment: NCI In Vivo Anticancer Drug Screen. Data for tumor model P388 Leukemia (intraperitoneal) in CD2F1 (CDF1) mice
Conditions: endpoint: median survival time, higher = longer survival
How it was run: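 Mice carrying the transplanted tumor received test compound or vehicle. Survival was recorded in each group, and the value is the treated-group measurement divided by that of the vehicle-treated control group.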

[1] = dose: 25.0 mg/kg/injection, schedule: Q01DX009 (ip), vehicle: saline with Tween-80
[2] = dose: 50.0 mg/kg/injection, schedule: Q01DX009 (ip), vehicle: saline with Tween-80
[3] = dose: 100.0 mg/kg/injection, schedule: Q01DX009 (ip), vehicle: saline with Tween-80
[4] = dose: 60.0 mg/kg/injection, schedule: Q01DX005 (ip), vehicle: Klucel (hydroxypropylcellulose) (HPC)
[5] = dose: 120.0 mg/kg/injection, schedule: Q01DX005 (ip), vehicle: Klucel (hydroxypropylcellulose) (HPC)
[6] = dose: 50.0 mg/kg/injection, schedule: Q01DX005 (ip), vehicle: saline with Tween-80
[7] = dose: 100.0 mg/kg/injection, schedule: Q01DX005 (ip), vehicle: saline with Tween-80
[8] = dose: 200.0 mg/kg/injection, schedule: Q01DX005 (ip), vehicle: saline with Tween-80
[9] = dose: 50.0 mg/kg/injection, schedule: Q01DX005 (ip), vehicle: saline
[10] = dose: 100.0 mg/kg/injection, schedule: Q01DX005 (ip), vehicle: saline
[11] = dose: 200.0 mg/kg/injection, schedule: Q01DX005 (ip), vehicle: saline
[12] = dose: 100.0 mg/kg/injection, schedule: Q01DX001 (ip), vehicle: saline with Tween-80
[13] = dose: 200.0 mg/kg/injection, schedule: Q01DX001 (ip), vehicle: saline with Tween-80
[14] = dose: 400.0 mg/kg/injection, schedule: Q01DX001 (ip), vehicle: saline with Tween-80
[15] = dose: 60.0 mg/kg/injection, schedule: Q01DX005 (ip), vehicle: saline with Tween-80
[16] = dose: 120.0 mg/kg/injection, schedule: Q01DX005 (ip), vehicle: saline with Tween-80
[17] = dose: 240.0 mg/kg/injection, schedule: Q01DX005 (ip), vehicle: saline with Tween-80
[18] = dose: 100.0 mg/kg/injection, schedule: Q04DX003 (ip), vehicle: saline with Tween-80
[19] = dose: 200.0 mg/kg/injection, schedule: Q01DX009 (ip), vehicle: saline with Tween-80
[20] = dose: 200.0 mg/kg/injection, schedule: Q04DX003 (ip), vehicle: saline with Tween-80
[21] = dose: 50.0 mg/kg/injection, schedule: Q01DX005 (ip), vehicle: Klucel (hydroxypropylcellulose) (HPC)
[22] = dose: 100.0 mg/kg/injection, schedule: Q01DX005 (ip), vehicle: Klucel (hydroxypropylcellulose) (HPC)
[23] = dose: 200.0 mg/kg/injection, schedule: Q01DX005 (ip), vehicle: Klucel (hydroxypropylcellulose) (HPC)

Nc1c(C(=O)O)[nH]c(=O)[nH]c1=O
T/C (dose: 12.5 mg/kg/injection, schedule: Q01DX009 (ip), vehicle: saline with Tween-80): 119 % of control
T/C [1]: 119 % of control
T/C [2]: 120 % of control
T/C [3]: 118 % of control

CCOc1c(N=Nc2ccc(O)cc2)c(C)nn1C(=S)SC
T/C (dose: 60.0 mg/kg/injection, schedule: Q01DX005 (ip), vehicle: Klucel + Tween-80): 107 % of control
T/C (dose: 120.0 mg/kg/injection, schedule: Q01DX005 (ip), vehicle: Klucel + Tween-80): 104 % of control
T/C (dose: 240.0 mg/kg/injection, schedule: Q01DX005 (ip), vehicle: Klucel + Tween-80): 100 % of control

COc1cc2c(c(=O)c3ccccc3n2C)c2c1c(=O)c1ccccc1n2C
T/C [4]: 96 % of control
T/C [5]: 98 % of control

CC(=Nc1ccc(S(=O)(=O)c2ccc(N=C(C)N3CCCCC3)cc2)cc1)N1CCCCC1
T/C [6]: 100 % of control
T/C [7]: 97 % of control
T/C [8]: 88 % of control

CN(C)C1C(=O)C(C(=O)NCNC(CO)(CO)CO)=C(O)C2(O)C(=O)C3=C(O)c4c(O)cccc4C(C)(O)C3CC12 (stereo not drawn)
T/C [9]: 92 % of control
T/C [10]: 101 % of control
T/C [11]: 100 % of control

O=C(O)c1c(-c2ccccc2)sc2ccccc2c1=O
T/C [12]: 99 % of control
T/C [13]: 99 % of control
T/C [14]: 99 % of control

OCC12OCC(C=CC1O)O2 (stereo not drawn)
T/C (dose: 60.0 mg/kg/injection, schedule: Q01DX005 (ip), vehicle: saline): 99 % of control
T/C (dose: 120.0 mg/kg/injection, schedule: Q01DX005 (ip), vehicle: saline): 91 % of control
T/C (dose: 240.0 mg/kg/injection, schedule: Q01DX005 (ip), vehicle: saline): 98 % of control

COC(=O)C(=O)C(C#N)c1ccc(C)cc1 (stereo not drawn)
T/C [15]: 104 % of control
T/C [16]: 104 % of control
T/C [17]: 103 % of control

Nc1ccccc1SC1CC(=O)N(c2ccccc2Cl)C1=O (stereo not drawn)
T/C [2]: 90 % of control
T/C [3]: 90 % of control and 95 % of control
T/C [18]: 90 % of control
T/C [19]: 95 % of control
T/C [20]: 90 % of control
T/C (dose: 400.0 mg/kg/injection, schedule: Q04DX003 (ip), vehicle: saline with Tween-80): 95 % of control

COc1ccc2ccc(/C=C/[N+](=O)[O-])cc2c1OC
T/C (dose: 3.13 mg/kg/injection, schedule: Q01DX009 (ip), vehicle: other): 109 % of control
T/C (dose: 6.25 mg/kg/injection, schedule: Q01DX009 (ip), vehicle: other): 108 % of control
T/C (dose: 12.5 mg/kg/injection, schedule: Q01DX009 (ip), vehicle: other): 110 % of control
T/C (dose: 25.0 mg/kg/injection, schedule: Q01DX009 (ip), vehicle: other): 106 % of control

CCCn1c(O)c(C(=O)CC)sc1=S
T/C [4]: 97 % of control
T/C [5]: 99 % of control

Cc1ccc(/C=N/O)cc1
T/C (dose: 25.0 mg/kg/injection, schedule: Q01DX005 (ip), vehicle: Klucel (hydroxypropylcellulose) (HPC)): 97 % of control
T/C [21]: 98 % of control
T/C [22]: 99 % of control
T/C [23]: 98 % of control

C#CCOc1c(Cl)cc(Cl)c2ccccc12
T/C (dose: 100.0 mg/kg/injection, schedule: Q04DX003 (ip), vehicle: Klucel (hydroxypropylcellulose) (HPC)): 100 % of control
T/C (dose: 200.0 mg/kg/injection, schedule: Q04DX003 (ip), vehicle: Klucel (hydroxypropylcellulose) (HPC)): 93 % of control
T/C (dose: 400.0 mg/kg/injection, schedule: Q04DX003 (ip), vehicle: Klucel (hydroxypropylcellulose) (HPC)): 93 % of control

CC(=O)Nc1ccc(S(=O)(=O)/N=C2\C=CC(=O)c3ccccc32)cc1
T/C [1]: 105 % of control
T/C [2]: 115 % of control
T/C [3]: 110 % of control

C(=C/c1cc2ccc(C3=NCCN3)cc2o1)/c1cc2ccc(C3=NCCN3)cc2[nH]1
T/C (dose: 50.0 mg/kg/injection, schedule: Q04DX003 (ip), vehicle: suspension in saline): 114 % of control
T/C (dose: 100.0 mg/kg/injection, schedule: Q04DX003 (ip), vehicle: suspension in saline): 158 % of control and 164 % of control
T/C (dose: 200.0 mg/kg/injection, schedule: Q04DX003 (ip), vehicle: suspension in saline): 298 % of control

O=C1NN=C(c2ccccc2)CS1
T/C [2]: 98 % of control
T/C [3]: 101 % of control

NC(=O)CCBr
T/C [2]: 101 % of control
T/C [3]: 97 % of control

Cc1ccc(-c2cc(=O)c3cc(C)c(C)c(C#N)c3o2)cc1
T/C (dose: 15.0 mg/kg/injection, schedule: Q01DX005 (ip), vehicle: Klucel (hydroxypropylcellulose) (HPC)): 94 % of control
T/C (dose: 30.0 mg/kg/injection, schedule: Q01DX005 (ip), vehicle: Klucel (hydroxypropylcellulose) (HPC)): 87 % of control and 90 % of control
T/C [4]: 90 % of control
T/C [5]: 86 % of control and 88 % of control
T/C (dose: 240.0 mg/kg/injection, schedule: Q01DX005 (ip), vehicle: Klucel (hydroxypropylcellulose) (HPC)): 96 % of control

CCOC(=O)Nc1cc2c(c(N)n1)N=C(c1ccccc1)CN2
T/C (dose: 2.6 mg/kg/injection, schedule: Q04DX003 (ip), vehicle: saline with Tween-80): 119 % of control
T/C (dose: 3.0 mg/kg/injection, schedule: Q01DX005 (ip), vehicle: saline with Tween-80): 117 % of control and 123 % of control
T/C (dose: 3.0 mg/kg/injection, schedule: Q01DX009 (ip), vehicle: saline with Tween-80): 156 % of control
T/C (dose: 6.0 mg/kg/injection, schedule: Q01DX009 (ip), vehicle: saline with Tween-80): 105 % of control
T/C (dose: 6.0 mg/kg/injection, schedule: Q04DX003 (ip), vehicle: saline with Tween-80): 151 % of control
T/C (dose: 6.25 mg/kg/injection, schedule: Q01DX001 (ip), vehicle: saline with Tween-80): 118 % of control
T/C (dose: 9.0 mg/kg/injection, schedule: Q04DX003 (ip), vehicle: saline with Tween-80): 173 % of control
T/C (dose: 12.0 mg/kg/injection, schedule: Q01DX001 (ip), vehicle: saline with Tween-80): 151 % of control and 157 % of control
T/C (dose: 12.5 mg/kg/injection, schedule: Q01DX001 (ip), vehicle: saline with Tween-80): 150 % of control
T/C (dose: 18.0 mg/kg/injection, schedule: Q01DX001 (ip), vehicle: saline with Tween-80): 168 % of control

O=C(Nc1ccc(C2=NCCN2)c(O)c1)c1ccc(C(=O)Nc2ccc(C3=NCCN3)c(O)c2)cc1
T/C [6]: 99 % of control
T/C [7]: 103 % of control
T/C [8]: 107 % of control

CC(O)CCC1CCCCN1 (stereo not drawn)
T/C [9]: 109 % of control
T/C [10]: 100 % of control
T/C [11]: 101 % of control

NC(=O)c1sc(N2CCCC2)nc1N
T/C [15]: 112 % of control
T/C [16]: 105 % of control
T/C [17]: 118 % of control

CC([Se])=Nc1ccc(Br)cc1
T/C (dose: 12.5 mg/kg/injection, schedule: Q04DX003 (ip), vehicle: Klucel (hydroxypropylcellulose) (HPC)): 100 % of control
T/C (dose: 25.0 mg/kg/injection, schedule: Q04DX003 (ip), vehicle: Klucel (hydroxypropylcellulose) (HPC)): 100 % of control

[O-]c1on[n+](-c2ccccc2-n2cccn2)c1-c1ccccc1
T/C [12]: 90 % of control
T/C [13]: 91 % of control
T/C [14]: 90 % of control

C=CCCC1CC2CCCCN2O1 (stereo not drawn)
T/C (dose: 61.25 mg/kg/injection, schedule: Q01DX009 (ip), vehicle: saline): 115 % of control
T/C (dose: 122.5 mg/kg/injection, schedule: Q01DX009 (ip), vehicle: saline): 103 % of control
T/C (dose: 245.0 mg/kg/injection, schedule: Q01DX009 (ip), vehicle: saline): 100 % of control

CC1(C)c2ccccc2Nc2ccccc21
T/C [18]: 100 % of control
T/C [20]: 91 % of control

CCOC(=O)c1c(C)c(-c2ccccc2)c(-c2ccccc2)c(C)c1-c1ccccc1
T/C [2]: 97 % of control
T/C [3]: 100 % of control
T/C [19]: 92 % of control

NC(CSSCC(N)C(=O)c1ccccc1)C(=O)c1ccccc1 (stereo not drawn)
T/C [21]: 98 % of control
T/C [22]: 98 % of control
T/C [23]: 105 % of control
